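96-well plates; 48 h exposure; 5 concentrations. Endpoints by linear interpolation between flanking doses. Not reached: highest tested concentration assigned. Here, GI50 denotes the concentration required for 50% inhibition of growth.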 Active and inactive are the calls of the source. Cut-off read from the data, not from the text of the source: active = GI50 up to about 1.1 µM and inactive = higher.
How the values were obtained:
Assay in all cases: NCI tumour cell line growth inhibition, 48 h
SF-268 = system: SF-268
SW-620 = system: SW-620
DMS-114 = system: DMS-114
DLD-1 = system: DLD-1
RXF 393 = system: RXF 393
SK-MEL-5 = system: SK-MEL-5
SNB-19 = system: SNB-19
OVCAR-5 = system: OVCAR-5
OVCAR-3 = system: OVCAR-3
CCRF-CEM = system: CCRF-CEM
OVCAR-4 = system: OVCAR-4
NCI-H460 = system: NCI-H460
SR = system: SR
HOP-18 = system: HOP-18
HL-60 = system: HL-60
NCI-H23 = system: NCI-H23
ACHN = system: ACHN
HT-29 = system: HT-29
Malme-3M = system: Malme-3M
SNB-75 = system: SNB-75
CAKI-1 = system: CAKI-1
SK-OV-3 = system: SK-OV-3
OVCAR-8 = system: OVCAR-8
COLO 205 = system: COLO 205
IGROV-1 = system: IGROV-1
SF-539 = system: SF-539
MOLT-4 = system: MOLT-4
KM12 = system: KM12
RPMI-8226 = system: RPMI-8226
U-251 = system: U-251
A549 = system: A549
786-0 = system: 786-0
UACC-62 = system: UACC-62
HCT-15 = system: HCT-15
TK-10 = system: TK-10
SK-MEL-28 = system: SK-MEL-28
SF-295 = system: SF-295
SNB-78 = system: SNB-78
NCI-H226 = system: NCI-H226
HCT-116 = system: HCT-116
HOP-62 = system: HOP-62
SK-MEL-2 = system: SK-MEL-2
NCI-H522 = system: NCI-H522
HOP-92 = system: HOP-92
M14 = system: M14
LOX IMVI = system: LOX IMVI
LXFL 529 = system: LXFL 529
M19-MEL = system: M19-MEL
XF498 = system: XF498
K562 = system: K562
SN12C = system: SN12C
EKVX = system: EKVX
MDA-N = system: MDA-N
T47D = system: T47D
UACC-257 = system: UACC-257
MDA-MB-435 = system: MDA-MB-435
DU-145 = system: DU-145
BT-549 = system: BT-549
Hs-578T = system: Hs-578T
UO-31 = system: UO-31
PC-3 = system: PC-3
DMS-273 = system: DMS-273
MDA-MB-231 = system: MDA-MB-231
MCF7 = system: MCF7
KM-20L2 = system: KM-20L2
A498 = system: A498
HCC 2998 = system: HCC 2998
NCI/ADR-RES = system: NCI/ADR-RES

Clc1ccc(C2SCc3nc4ccccc4n32)cc1Cl (centres undefined)
GI50 (SF-268): 15900 nM (inactive) | GI50 (SW-620): 15300 nM (inactive) | GI50 (DMS-114): 14800 nM (inactive) | GI50 (DLD-1): 12600 nM (inactive) | GI50 (RXF 393): 4200 nM (inactive) | GI50 (SK-MEL-5): 9080 nM (inactive) | GI50 (SNB-19): 10600 nM (inactive) | GI50 (OVCAR-5): 10500 nM (inactive) | GI50 (OVCAR-3): 10500 nM (inactive) | GI50 (CCRF-CEM): 23700 nM (inactive) | GI50 (OVCAR-4): 13100 nM (inactive) | GI50 (NCI-H460): 13500 nM (inactive) | GI50 (SR): 13900 nM (inactive) | GI50 (HOP-18): < 10 nM (active) | GI50 (HL-60): 5900 nM (inactive) | GI50 (NCI-H23): 12600 nM (inactive) | GI50 (ACHN): 13000 nM (inactive) | GI50 (HT-29): 15100 nM (inactive) | GI50 (Malme-3M): 18800 nM (inactive) | GI50 (SNB-75): 3250 nM (inactive) | GI50 (CAKI-1): 14100 nM (inactive) | GI50 (SK-OV-3): 21400 nM (inactive) | GI50 (OVCAR-8): 13700 nM (inactive) | GI50 (COLO 205): 20300 nM (inactive) | GI50 (IGROV-1): 17300 nM (inactive) | GI50 (SF-539): 17100 nM (inactive) | GI50 (MOLT-4): 17100 nM (inactive) | GI50 (KM12): 11800 nM (inactive) | GI50 (RPMI-8226): 11400 nM (inactive) | GI50 (U-251): 16000 nM (inactive) | GI50 (A549): 13400 nM (inactive) | GI50 (786-0): 13800 nM (inactive) | GI50 (UACC-62): 13200 nM (inactive) | GI50 (HCT-15): 13300 nM | GI50 (TK-10): 13000 nM (inactive) | GI50 (SK-MEL-28): 12500 nM (inactive) | GI50 (SF-295): 11900 nM (inactive) | GI50 (SNB-78): 12300 nM (inactive) | GI50 (NCI-H226): 25200 nM (inactive) | GI50 (HCT-116): 13200 nM (inactive) | GI50 (HOP-62): 14500 nM (inactive) | GI50 (SK-MEL-2): 16200 nM (inactive) | GI50 (NCI-H522): 11500 nM (inactive) | GI50 (HOP-92): 11200 nM (inactive) | GI50 (M14): 13200 nM (inactive) | GI50 (LOX IMVI): 13100 nM (inactive) | GI50 (LXFL 529): 11800 nM (inactive) | GI50 (M19-MEL): > 10000 nM (inactive) | GI50 (XF498): 12100 nM (inactive) | GI50 (K562): 8340 nM (inactive) | GI50 (SN12C): 12600 nM (inactive) | GI50 (EKVX): 14400 nM (inactive)

COc1cccc2c1C(=O)c1c(O)c3c(c(O)c1C2=O)C[C@@](O)(/C(C)=N/NC(=O)c1ccccc1)C[C@@H]3OC1CC(N)C(O)C(C)O1 (some centres undefined)
GI50 (SF-268): 290 nM (active) | GI50 (SW-620): 136 nM (active) | GI50 (DMS-114): 202 nM (active) | GI50 (DLD-1): 1690 nM (inactive) | GI50 (RXF 393): 330 nM (active) | GI50 (SK-MEL-5): 161 nM (active) | GI50 (SNB-19): 179 nM (active) | GI50 (OVCAR-5): 643 nM (active) | GI50 (OVCAR-3): 624 nM (active) | GI50 (MDA-N): 308 nM (active) | GI50 (CCRF-CEM): 59.2 nM (active) | GI50 (OVCAR-4): 1170 nM (inactive) | GI50 (NCI-H460): 35.5 nM (active) | GI50 (SR): 19.9 nM (active) | GI50 (T47D): 159 nM (active) | GI50 (HOP-18): 454 nM (active) | GI50 (UACC-257): 594 nM (active) | GI50 (HL-60): 60.4 nM (active) | GI50 (NCI-H23): 201 nM (active) | GI50 (MDA-MB-435): 362 nM (active) | GI50 (ACHN): 80.2 nM (active) | GI50 (HT-29): 589 nM (active) | GI50 (Malme-3M): 213 nM (active) | GI50 (SNB-75): 373 nM (active) | GI50 (DU-145): 135 nM (active) | GI50 (BT-549): 304 nM (active) | GI50 (CAKI-1): 141 nM (active) | GI50 (SK-OV-3): 583 nM (active) | GI50 (OVCAR-8): 283 nM (active) | GI50 (COLO 205): 474 nM (active) | GI50 (IGROV-1): 262 nM (active) | GI50 (SF-539): 261 nM (active) | GI50 (Hs-578T): 256 nM (active) | GI50 (MOLT-4): 32.4 nM (active) | GI50 (KM12): 392 nM (active) | GI50 (UO-31): 1770 nM (inactive) | GI50 (RPMI-8226): 137 nM (active) | GI50 (U-251): 147 nM (active) | GI50 (PC-3): 171 nM (active) | GI50 (A549): 206 nM (active) | GI50 (DMS-273): 157 nM (active) | GI50 (MDA-MB-231): 490 nM (active) | GI50 (786-0): 56.2 nM (active) | GI50 (MCF7): 46.7 nM (active) | GI50 (UACC-62): 242 nM (active) | GI50 (KM-20L2): 807 nM (active) | GI50 (HCT-15): 1840 nM | GI50 (TK-10): 530 nM (active) | GI50 (SK-MEL-28): 973 nM (active) | GI50 (SF-295): 195 nM (active) | GI50 (SNB-78): 658 nM (active) | GI50 (NCI-H226): 104 nM (active) | GI50 (HCT-116): 190 nM (active) | GI50 (HOP-62): 122 nM (active) | GI50 (SK-MEL-2): 505 nM (active) | GI50 (A498): 510 nM (active) | GI50 (HCC 2998): 481 nM (active) | GI50 (NCI/ADR-RES): 16300 nM (inactive) | GI50 (NCI-H522): 190 nM (active) | GI50 (HOP-92): 114 nM (active) | GI50 (M14): 203 nM (active) | GI50 (LOX IMVI): 93.5 nM (active) | GI50 (M19-MEL): 302 nM (active) | GI50 (XF498): 80.3 nM (active) | GI50 (K562): 233 nM (active) | GI50 (SN12C): 155 nM (active) | GI50 (EKVX): 693 nM (active)

Reference: ChEMBL document CHEMBL1201862, “PubChem BioAssay data set” (2004)
